Test results as given in patent publication US5703070A, “Indole, indazole and benzisoxazole compounds” (Adir et Compagnie, priority 1995, dated 1997).
Where two headings read alike, the source gives them in different places.

Assays:
5-HT1A receptors = 5-HT1A receptors (Rattus norvegicus, UniProt P19327); assay: biochemical; format: binding; conditions: for D2 /5-HT1A: ratio of Ki values D2 / 5-HT1A
Procedure: (§1) The interaction of these compounds with various receptors was determined by using conventional binding studies, such as those described by M. J. Millan et at. […] The affinities of the compounds are expressed in Ki.

5-HT2C receptors [1] = biological target: T1, 5-HT2C receptors (Sus scrofa, UniProt K7GSR7); assay: biochemical; format: binding; conditions: Receptor profile Ki, 5-HT2C
T1 construct: from tissue; host or cells: pig choroid plexus (own knowledge of the cited method)
T1 sequence (K7GSR7 1-457): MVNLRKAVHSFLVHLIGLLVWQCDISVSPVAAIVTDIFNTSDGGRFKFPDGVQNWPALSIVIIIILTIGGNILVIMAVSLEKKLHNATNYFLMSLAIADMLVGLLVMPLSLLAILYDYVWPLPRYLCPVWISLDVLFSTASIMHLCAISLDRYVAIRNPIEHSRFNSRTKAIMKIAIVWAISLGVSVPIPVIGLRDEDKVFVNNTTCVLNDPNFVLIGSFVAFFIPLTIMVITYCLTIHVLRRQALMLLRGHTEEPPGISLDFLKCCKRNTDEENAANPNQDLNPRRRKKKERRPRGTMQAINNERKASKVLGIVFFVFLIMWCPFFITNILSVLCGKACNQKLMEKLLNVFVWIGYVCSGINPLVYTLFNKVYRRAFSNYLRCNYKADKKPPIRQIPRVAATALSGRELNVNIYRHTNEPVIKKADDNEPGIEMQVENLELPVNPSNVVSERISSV
Procedure: as §1

5-HT2C receptors [2] = assay: biochemical; format: binding; conditions: ratio of Ki values D2 / 5-HT2C
Procedure: as §1

D2 receptors = biological target: T2, D2 receptors (Rattus norvegicus, UniProt P61169); assay: biochemical; format: binding
T2 construct: from tissue; host or cells: rat striatum (own knowledge of the cited method)
T2 sequence (P61169 whole entry): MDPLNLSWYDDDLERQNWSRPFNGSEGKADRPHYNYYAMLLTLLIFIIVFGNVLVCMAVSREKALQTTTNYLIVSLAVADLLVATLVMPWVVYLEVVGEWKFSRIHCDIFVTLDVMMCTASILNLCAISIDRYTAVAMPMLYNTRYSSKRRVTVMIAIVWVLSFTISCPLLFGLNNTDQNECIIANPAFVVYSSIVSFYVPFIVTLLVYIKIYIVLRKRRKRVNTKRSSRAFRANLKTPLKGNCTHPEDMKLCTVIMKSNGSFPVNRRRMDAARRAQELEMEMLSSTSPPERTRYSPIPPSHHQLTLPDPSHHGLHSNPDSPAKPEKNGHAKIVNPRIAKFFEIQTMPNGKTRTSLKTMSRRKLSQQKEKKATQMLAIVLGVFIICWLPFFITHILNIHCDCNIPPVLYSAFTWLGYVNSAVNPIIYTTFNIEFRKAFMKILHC
Procedure: as §1

5-HT2A receptors = biological target: T3, 5-HT2A receptors (Rattus norvegicus, UniProt P14842); assay: Conventional binding studies, receptor profile: 5-HT2A; conditions: for Ki: Receptor profile Ki, 5-HT2A; for D2 /5-HT2A: ratio of Ki values D2 / 5-HT2A
T3 construct: from tissue; host or cells: rat frontal cortex (own knowledge of the cited method)
T3 sequence (P14842 whole entry): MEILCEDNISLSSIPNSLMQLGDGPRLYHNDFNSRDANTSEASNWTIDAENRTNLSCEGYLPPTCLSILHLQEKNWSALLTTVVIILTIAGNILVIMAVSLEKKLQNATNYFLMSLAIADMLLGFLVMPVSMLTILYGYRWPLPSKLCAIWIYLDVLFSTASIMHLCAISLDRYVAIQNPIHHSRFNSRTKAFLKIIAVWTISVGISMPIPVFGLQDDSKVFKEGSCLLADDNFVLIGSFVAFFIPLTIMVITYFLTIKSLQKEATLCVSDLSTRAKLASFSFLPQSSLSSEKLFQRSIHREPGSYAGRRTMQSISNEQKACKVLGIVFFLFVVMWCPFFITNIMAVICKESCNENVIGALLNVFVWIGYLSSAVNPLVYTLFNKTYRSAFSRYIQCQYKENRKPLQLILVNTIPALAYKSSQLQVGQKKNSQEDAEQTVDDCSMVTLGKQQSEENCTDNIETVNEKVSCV
Procedure: as §1

in vivo = conditions: rat, sc
[3] = tested on: mesolimbic dopaminergic pathways; assay: Verticalization test with apomorphine in mice (antipsychotic properties); conditions: for ED50: Mus musculus, sc; for Verticalization (Apomorphine) ID50: mice
schizophrenia = conditions: cited from earlier work; for extrapyramidal syndrome: in vivo
[4] = tested on: nigrostriatal dopaminergic transmission; conditions: background, literature; cited from earlier work
[5] = tested on: nigrostriatal dopaminergic transmission; assay: Catalepsy in rats (extrapyramidal potential); conditions: for ED50 /ID50 Ratio: catalepsy ED50 (rats) / verticalization ID50 (mice), hydrochloride
[6] = read-out: Verticalization (Apomorphine) ID50
[7] = read-out: Receptor profile Ki, 5-HT1A
[8] = read-out: Receptor profile Ki, D2
[9] = read-out: Verticalization (Apomorphine) ID50, mice, s.c. 30 min before test, apomorphine 0.75 mg/kg s.c.
[10] = s.c. 30 min before test, apomorphine 0.75 mg/kg s.c., hydrochloride

Sequence of 5-HT1A receptors (P19327 whole entry): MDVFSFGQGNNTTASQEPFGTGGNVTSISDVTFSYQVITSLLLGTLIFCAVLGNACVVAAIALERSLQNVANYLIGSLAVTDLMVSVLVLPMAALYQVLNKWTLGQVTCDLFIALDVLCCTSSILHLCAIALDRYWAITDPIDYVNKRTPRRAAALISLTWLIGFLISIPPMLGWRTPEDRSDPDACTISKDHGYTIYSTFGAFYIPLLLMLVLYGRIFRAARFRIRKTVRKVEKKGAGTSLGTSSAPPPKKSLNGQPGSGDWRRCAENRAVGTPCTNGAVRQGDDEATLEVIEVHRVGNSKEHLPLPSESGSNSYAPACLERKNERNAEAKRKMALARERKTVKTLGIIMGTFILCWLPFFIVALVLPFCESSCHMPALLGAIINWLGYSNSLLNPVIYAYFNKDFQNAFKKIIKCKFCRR

| SMILES | D2 /5-HT1A (5-HT1A receptors) | Ki (5-HT2C receptors [1]) | D2 /5-HT2C (5-HT2C receptors [2]) | Ki (5-HT2A receptors) | D2 /5-HT2A (5-HT2A receptors) | ED50 at 0.5 h (in vivo) | selectivity ratio (in vivo) | Ki (5-HT1A receptors; [7]) | Ki (D2 receptors; [8]) | ED50 [3, 9] | further results |
| --- | --- | --- | --- | --- | --- | --- | --- | --- | --- | --- | --- |
| COc1ccc2[nH]cc(CCN3CCC(CC(=O)c4ccc(F)cc4)C3)c2c1.Cl (centres unmarked) [Ex. 1, 3-{2-[3-(4-Fluorobenzoylmethyl)pyrrolidin-1-yl]ethyl}-5-methoxyindole hydrochloride] | 183 | 50 nM | 22 | 1.6 nM | 69 | > 40 mg/kg | > 129 |  |  |  | Ki (5-HT1A receptors; Receptor profile Ki, 5-HT1A): 0.6 nM; Ki (D2 receptors): 110 nM; ED50 [3, 6]: 0.31 mg/kg |
| O=C(CCCN1CCC(O)(c2ccc(Cl)cc2)CC1)c1ccc(F)cc1 [Haloperidol] |  |  |  |  |  | 0.14 mg/kg |  |  |  |  | extrapyramidal syndrome (schizophrenia): cause an extrapyramidal syndrome of Parkinsonian type; treatment of productive symptoms (schizophrenia; such as fantasizing and hallucinations): fairly well; effectiveness with respect to deficiency symptoms (schizophrenia; such as social withdrawal): very low; ED50 [3, 6]: 0.01 mg/kg |
| COc1ccc2[nH]cc(CCCN3CCC(C(=O)c4ccc(F)cc4)CC3)c2c1.Cl [Ref. A, 3-{3-[4-(4-Fluorobenzoyl)piperidin-1-yl]propyl}-5-methoxyindole hydrochloride, reference compound] | 2 | 98 nM | 0.1 | 8.5 nM | 1.3 | 1.4 mg/kg | 14 | 5.6 nM | 11 nM | 0.1 mg/kg |  |
| CN1CCN(C2=Nc3cc(Cl)ccc3Nc3ccccc32)CC1 [Clozapine] |  |  |  |  |  | > 40 mg/kg |  |  |  |  | cataleptogenic effect [4]: absence of cataleptogenic effect; toxicity (schizophrenia; general treatment of schizophrenic conditions): due to its toxicity, clozapine cannot be envisaged in the general treatment of schizophrenic conditions; extrapyramidal syndrome (schizophrenia): virtually no extrapyramidal syndrome; Verticalization (Apomorphine) ID50 ([3]; s.c. 30 min before test, apomorphine 0.75 mg/kg s.c.): 2.2 mg/kg/S.C. |
| COc1ccc2[nH]cc(CCCN3CCC(CC(=O)c4ccc(F)cc4)C3)c2c1.Cl (centres unmarked) [Ex. 4, 3-{3-[3-(4-fluorobenzoylmethyl)pyrrolidin-1-yl]propyl}-5-methoxyindole hydrochloride] |  | 4 nM |  | 1.2 nM |  | > 40 mg/kg |  | 1.1 nM | 6.3 nM |  | D2 /5-HT1A (5-HT1A receptors; hydrochloride): 5.7; D2 /5-HT2C (5-HT2C receptors [2]; hydrochloride): 1.6; D2 /5-HT2A (5-HT2A receptors; hydrochloride): 5.2; ED50 /ID50 Ratio [5]: > 133; Verticalization (Apomorphine) ID50 [3, 10]: 0.3 mg/kg/S.C. |
| COc1ccc2c(c1)c(CCN1CCC(CC(=O)c3ccc(F)cc3)C1)cn2C.Cl (centres unmarked) [Ex. 2, 1-Methyl-3-{2-[3-(4-fluorobenzoylmethyl)pyrrolidin-1-yl]ethyl}-5-methoxyindole hydrochloride] | 0.9 | 16 nM | 8.3 | 1.3 nM | 101 | > 40 mg/kg | > 32 | 141 nM | 132 nM | 1.25 mg/kg |  |
| Cl.O=C(CC1CCN(CCCc2c[nH]c3ccc(F)cc23)C1)c1ccc(F)cc1 (centres unmarked) [Ex. 8, 3-{3-[3-(4-Fluorobenzoylmethyl)pyrrolidin-1-yl]propyl}-5-fluoroindole hydrochloride] | 0.8 | 19 nM | 0.5 | 6.6 nM | 1.4 | > 40 mg/kg | > 80 | 12.3 nM | 9.5 nM | 0.5 mg/kg |  |
| COc1ccc2[nH]cc(CCCN3CCC(Cc4noc5cc(F)ccc45)C3)c2c1.Cl (centres unmarked) [Ex. 9, 6-Fluoro-3-{1-[3-(5-methoxyindol-3-yl)propyl]pyrrolidin-3-ylmethyl}-1,2-benzisoxazole hydrochloride] | 143 | 7.9 nM | 13 | 3.2 nM | 31 | > 40 mg/kg | > 40 | 0.7 nM | 98 nM | 1 mg/kg |  |
| COc1ccc2[nH]cc(CCCN3CCC(CC(=O)c4ccc(F)cc4)C3)c2c1.Cl (racemic) [Ex. 3, 3-{3-[3-(4-Fluorobenzoylmethyl)pyrrolidin-1-yl]propyl}-5-methoxyindole hydrochloride] | 5.2 | 3.3 nM | 1.6 | 1 nM | 5.2 | > 40 mg/kg | > 266 | 1 nM | 5.2 nM | 0.15 mg/kg |  |
| COc1ccc2[nH]cc(CCCN3CCC(CC(=O)c4ccc(F)cc4)C3)c2c1.Cl (centres unmarked) [Ex. 5, 3-{3-[3-(4-fluorobenzoylmethyl)pyrrolidin-1-yl]propyl}-5-methoxyindole hydrochloride] |  | 3.8 nM |  | 1.7 nM |  |  |  | 0.4 nM | 7.1 nM |  | D2 /5-HT1A (5-HT1A receptors; hydrochloride): 17.8; D2 /5-HT2C (5-HT2C receptors [2]; hydrochloride): 1.9; D2 /5-HT2A (5-HT2A receptors; hydrochloride): 4.2; ED50 /ID50 Ratio [5]: > 307; Induction of catalepsy ED50 ([5]; rats, s.c. 30 min before test, dose inducing catalepsy for mean 15 seconds): > 40.0 mg/kg/S.C.; Verticalization (Apomorphine) ID50 [3, 10]: 0.13 mg/kg/S.C. |
| COc1ccc2c(c1)c(CCCN1CCC(CC(=O)c3ccc(F)cc3)C1)cn2C.Cl (centres unmarked) [Ex. 6, 1-Methyl-3-{3-[3-(4-fluorobenzoylmethyl)pyrrolidin-1-yl]propyl}-5-methoxyindole hydrochloride] | 0.4 | 17 nM | 0.9 | 4.3 nM | 3.6 |  |  | 39 nM | 15.4 nM |  |  |
| COc1ccc2[nH]cc(CCCN3CCCC(C(=O)c4ccc(F)cc4)CC3)c2c1.Cl (centres unmarked) [Ex. 7, 3-{3-[4-(4-Fluorobenzoyl)perhydroazepin-1-yl]propyl}-5-methoxyindole hydrochloride] | 62 | 117 nM | 0.4 | 2.7 nM | 1.6 | > 40 mg/kg | > 80 | 0.7 nM | 43.5 nM | 0.5 mg/kg |  |
